Data reported in patent publication US8124582B2, “Treatment of diabetes” (FibroGen, Inc., priority 2002, dated 2012).

Columns and labels:
[1] = Glycated hemoglobin (HbA1c) in db/db mice; type: in vivo, male db/db mice; details: 0.5 mg/ml in drinking water
Experimental: The effect of compound administration on glycated hemoglobin levels was examined using a mouse model of diabetes as follows. Twenty male db/db mice (Harlan) received drinking water containing either vehicle (100 μM histidine) or compound A (0.5 mg/ml) for a period of 8 weeks. Prior to study initiation and at weeks 4 and 8 following treatment, blood samples were collected from the tail vein and HbA1c levels were measured using an HbA1cNOW kit (Metrika Inc., Sunnyvale Calif.).

[2] = Body weight gain, abdominal fat pad and organ weight in diet-induced obesity model; type: in vivo, male C57BL/6J mice; details: C57BL/6J mice, 75 mg/kg/day oral gavage, 28 days; for abdominal fat pad weight on high-fat diet: FIG. 9B; for organ weights of kidney, liver, and heart between experimental groups: FIG. 9C; for body weight gain on high-fat diet vs untreated high-fat diet: p<0.05, FIG. 9A
From the text: C57B1/6J mice fed a high-fat diet develop severe obesity, hyperglycemia, and hyperinsulinemia, and are a model of diet-induced obesity, Type 2 diabetes, and impaired glucose tolerance. Forty male C57BL/6J mice obtained from The Jackson Laboratory (Bar Harbor Me.) were divided into the following experimental groups: Group 1: vehicle control animals fed standard mouse chow (n=10); Group 2: vehicle control animals fed high-fat mouse chow (45% fat from Research Diets) (n=10); Group 3: animals fed high-fat mouse chow and administered 75 mg/kg/day compound E by oral gavage (n=10); Group 4: animals fed high-fat mouse chow and administered 75 mg/kg/day compound A by oral gavage (n=10). The feeding regimen was continued for 28 days with weekly measurement of body weight. Animals were then sacrificed and their organs and fat pads were harvested and weighed.

[3] = Serum triglyceride levels in db/db mice; type: in vivo, male db/db mice; details: 0.5 mg/ml in drinking water, 8 weeks
From the text: The effect of compound administration on triglyceride levels was examined using a mouse model of diabetes as follows: Twenty male db/db mice (Harlan, Indianapolis, Ind.), which carry a homozygous loss-of-function mutation in the leptin receptor, were used for this study. Triglycerdide levels are typically elevated 1.5-2 times in db/db mice compared to that in normal mice. (Nishina et al (1994) Metabolism 43:549-553.) Triglyceride levels in db/db mice progressively increase with age. (Tuman and Doisy (1977) Diabetologia 13:7-11.) Mice received drinking water containing either vehicle (100 μM histidine) or compound A (0.5 mg/ml in 100 μM histidine) for a period of 8 weeks. At the termination of the study, animals were fasted overnight and blood samples were taken from the caudal vena cava under general anesthesia and placed in serum separator tubes. Blood samples were sent to Quality Clinical Labs (Mountain View, Calif.) for analysis.

[4] = test system: GluT-1; experiment: GluT-1 protein levels in H9c2 cells (Western blot); type: cell-based, rat; details: H9c2 cells, 5, 10, and 20 μM, 16 hours; FIG. 1B
Experimental: Human SSC-25 (squamous cell carcinoma) or rat H9c2 (ventricular cardiomyocyte) cells were grown to confluence in 100 mm culture dishes at 37° C., 10% CO2 in DMEM with 10% fetal calf serum. Cells were then washed twice with PBS and incubated with vehicle control, compound D (10 and 25 μM), or compound C (5, 10, and 20 μM) for 16 hours. Plates were placed on ice, culture supernatant was removed, and lysis buffer-1 (LB-1: 10 mM Tris pH 7.4, 1 mM EDTA, 150 mM sodium chloride, 0.5% IGEPAL) was added. Cell lysates were harvested by scraping, incubated for 15 minutes on ice, and then centrifuged at 3000×g for 5 minutes at 4° C. The supernatant, which represents the cytosolic fraction, was collected and cytosolic proteins were separated under reducing conditions using SDS-polyacrylamide gel electrophoresis (SDS-PAGE) with equal amounts of protein loaded per lane.
SDS-PAGE was conducted at 150 V for 2 hours, after which the proteins were transferred to a PVDF membrane at 400 mA for 1.5 hours at 4° C. The membrane was incubated in blocking buffer for 2 hours or overnight and washed once with T-TBS prior to addition of anti-GluT-1 antibody (Alpha Diagnostics) diluted to working concentration in blocking buffer. […]

[5] = Intra-Peritoneal Glucose Tolerance Test in diet-induced Type 2 diabetes model; type: in vivo, male C57BL/6J mice; details: 75 mg/kg/day oral gavage, 14 days
Experimental: C57B1/6J mice fed a high-fat diet develop severe obesity, hyperglycemia, and hyperinsulinemia, and are a model of diet-induced obesity, Type 2 diabetes, and impaired glucose tolerance. Forty male C57BL/6J mice obtained from The Jackson Laboratory (Bar Harbor Me.) were divided into the following experimental groups: Group 1: vehicle control animals fed standard mouse chow (n=10); Group 2: animals fed standard mouse chow and administered 75 mg/kg/day compound E by oral gavage (n=10); Group 3: vehicle control animals fed high-fat mouse chow (45% fat from Research Diets) (n=10); Group 4: animals fed high-fat mouse chow and administered 75 mg/kg/day compound E by oral gavage (n=10). The feeding regimen was continued for 14 days with daily measurement of body weight and food consumption. Animals were then fasted for 4 hours prior to an Intra-Peritoneal Glucose Tolerance Test (IPGTT) using a glucose load of 2 g glucose/kg body weight. Blood samples were taken for determination of blood glucose levels at 0, 15, 30, 60, and 90 minutes following glucose administration.

[6] = test system: HIF-1α; experiment: HIF-1α stabilization in cells, TRANSAM HIF-1 ELISA of nuclear fractions; type: cell-based, Human; details: epithelial cells (293A) and hepatocellular carcinoma (Hep3B); FIG. 12B
Experimental: Stabilization of HIFα using compounds and methods of the present invention was examined as follows. Human cells derived from adenovirus-transformed fetal kidney epithelium (293A), cervical epithelial adenocarcinoma (HeLa), hepatocellular carcinoma (Hep3B), squamous carcinoma (SSC-25), and lung fibroblast (HLF) (see, e.g., American Type Culture Collection, Manassas Va.; and Qbiogene, Carlsbad Calif.) were separately seeded into 100 mm culture dishes and grown at 37° C., 20% O2, 10% CO2 in media as follows: HeLa cells in Dulbecco's Modification of Eagle's Medium (DMEM), 2% fetal bovine serum (FBS); HLF cells in DMEM, 10%FBS; 293A cells in DMEM, 5%FBS; and Hep3B cells in Minimal Essential Medium (MEM), Earle's BSS (Mediatech Inc., Herndon Va.), 2 mM L-glutamine, 0.1 mM non-essential amino acids, 1 mM sodium pyruvate, 10% FBS. When cell layers reached confluence, the media was replaced with OPTI-MEM media (Invitrogen Life Technologies, Carlsbad Calif.) and cell layers were incubated for approximately 24 hours in 20% O2, 10% CO2 at 37° C. Compound of the invention (one of compounds B, F, G, and H) or DMSO (0.5 to 1%) was then added to existing medium, and incubation was continued overnight.
Alternatively, nuclear fractions were prepared using a Nuclear Extract kit (Active Motif, Carlsbad Calif.) and were analyzed for HIF-1α using a TRANSAM HIF-1 ELISA kit (Active Motif) according to the manufacturer's instructions.

| SMILES | abdominal fat pad weight on high-fat diet [2] | organ weights of kidney, liver, and heart between experimental groups [2] | body weight gain on high-fat diet vs untreated high-fat diet [2] | HIFα stabilization and accumulation (ELISA) compared to vehicle-treated control cells [6] | other results |
| --- | --- | --- | --- | --- | --- |
| O=C(O)CNC(=O)c1nc2cc(Cl)ccc2cc1O [compound A, [(7-Chloro-3-hydroxy-quinoline-2-carbonyl)-amino]-acetic acid] | essentially the same fat pad weight as animals fed a normal diet | not different | significantly less weight gain | – | HbA1c levels at week 8 vs non-treated [1]: significantly lower; HbA1c levels at week 8 ([1]; 8 weeks, control rose from about 7.5% to about 10%, FIG. 6): about 7.5%; HbA1c levels over time ([1]; weeks 0 to 8): did not increase over time; triglyceride level vs controls [3]: significantly lower than controls; triglyceride level ([3]; fasted overnight, control approximately 120 mg/dL, FIG. 11): approximately 85 mg/dL |
| O=C(O)CNC(=O)c1ncc2cc(Oc3ccccc3)ccc2c1O [compound C, [(4-Hydroxy-7-phenoxy-isoquinoline-3-carbonyl)-amino]-acetic acid] | – | – | – | – | protein levels of GluT-1 [4]: increased |
| COc1ccc2c(O)c(C(=O)NCC(=O)O)nc(Cl)c2c1 [compound E, [(1-Chloro-4-hydroxy-7-methoxy-isoquinoline-3-carbonyl)-amino]-acetic acid] | essentially the same fat pad weight as animals fed a normal diet | not different | significantly less weight gain | – | glucose clearance rate in IPGTT, treated high-fat diet mice (RxHF) vs mice on standard chow ([5]; 2 g glucose/kg, FIG. 5A): substantially the same; glucose AUC in IPGTT, treated mice (RxChow, RxHF) vs standard chow without compound (VeChow) ([5]; FIG. 5B): no statistical difference; glucose AUC in IPGTT, high-fat chow without compound (VeHF) vs high-fat chow treated (RxHF) ([5]; t-test, p<0.05, FIG. 5B): statistically significant difference |
| CC(C)Oc1ccc2nc(C(=O)NCC(=O)O)c(O)cc2c1 [compound F, [(3-Hydroxy-6-isopropoxy-quinoline-2-carbonyl)-amino]-acetic acid] | – | – | – | stabilization and accumulation of HIFα | – |
| O=C(O)CNC(=O)c1ncccc1O [compound G, [(3-Hydroxy-pyridine-2-carbonyl)-amino]-acetic acid] | – | – | – | stabilization and accumulation of HIFα | – |
| COC(=O)CNC(=O)c1nc(Cl)c2cc(OCc3ccccc3)ccc2c1O [compound H, [(7-Benzyloxy-1-chloro-4-hydroxy-isoquinoline-3-carbonyl)-amino]-acetic acid methyl ester] | – | – | – | stabilization and accumulation of HIFα | – |
